Literature values as cited in patent US20120283197A1, “Compositions Comprising a Glucose Anti-Metabolite, BHA, and/or BHT” (priority 2011, published 2012).

Key:
[1] = test system: cultured insulin secreting cells
[2] = rats, fed for 18 months, 140 mg/Kg body weight per day
adipocytes = conditions: rats, fed for 18 months, 140 mg/Kg body weight per day
[3] = test system: hexokinase or other glycolytic enzymes; conditions: extracts of mouse lung
[4] = mice, dogs, and other species

With `COc1ccc(O)c(C(C)(C)C)c1` [BHA, butylated hydroxyanisole] as the compound, how does the “alloxan-induced increase in insulin secretion” value [1] read?
The value was “prevent the alloxan-induced increase in insulin secretion”.

And the “negative effects of alloxan” value [1]?
The value was “blocked the negative effects of alloxan”.

Which results are given for `Cc1cc(C(C)(C)C)c(O)c(C(C)(C)C)c1` [BHT, butylated hydroxytoluene]?
insulin sensitivity [2]: increased insulin sensitivity; age-related reduction in insulin-stimulated glucose transport in adipocytes (adipocytes): partially ameliorated; effect on hexokinase or other glycolytic enzymes [3]: no effect

For `O=C(CO)[C@@H](O)[C@@H](O)[C@H](O)[C@H](O)CO` [Mannoheptulose, mannoheptulose], which “plasma insulin levels and/or insulin sensitivity” value [4] is on record?
The value was “lower plasma insulin levels and/or increase insulin sensitivity”.
